Measurements: publication PMC6522981, “Structure-based design generated novel hydroxamic acid based preferential HDAC6 lead inhibitor with on-target cytotoxic activity against primary choroid plexus carcinoma” (Journal of Enzyme Inhibition and Medicinal Chemistry, 2019)
Read-outs that look alike come from different tables or passages of the source.

What was measured:
[1] = tested on: CCHE-45 cells (primary choroid plexus carcinoma); experiment: Cytotoxicity assay using xCELLigence system; type: cell-based; conditions: for IC50: xCELLigence, 96 h exposure, mean of three replicates, read-out: CCHE-45 IC50 (µM)±SEM
Experimental: Established primary Choroid plexus carcinoma (CCHE-45) were cultured as previously described, in RPMI-1640 (Lonza, BE-12-702F) supplemented with 10% Fetal Bovine Serum (FBS, Gibco, 12483–020) and 100 U/ml penicillin and 100 µg/ml streptomycin (Lonza, DE17-602F). Cells were maintained at 37 °C in a 5% CO2 humidified atmosphere.
Cytotoxicity assay by the xCELLigence system was performed using RTCA xCELLigence DP system (ACEA Biosciences, Inc., San Diego, CA, USA) as per manufacturer’s instructions https://www.aceabio.com/products/rtca-dp/, https://www.aceabio.com/products/rtca-sp[65–68]. In brief, after setting up the instruments and blanking the wells with media, CCHE-45 cells were seeded into the 96 well E-plate (ACEA Biosciences) with a density of 20,000 cells/well. Attachment and growth of the cells were monitored every 1 h. Approximately 24 h after seeding, when the cells were in the log growth phase, the cells were exposed to a range of test compound 10a concentrations (3.125, 6.25, 12.5, 25, 50, 100, 200, 400) µM for 96 h. Controls received either medium alone, or medium + DMSO with a final concentration below of 0.5%. For each concentration, duplicates were tested. Experiments were conducted in three biological repeats. Results were analyzed using the RTCA software (Version 2.0). Data was exported and average IC50 value was analyzed.
• Based on previous pilot experiment, the highest SK114 conc. (100µM)
72hrs, thus this experiment was performed with higher concentration
• Cells were incubated with the drug for 96hrs
• Experiment was done in technical duplicates

[2] = molecular target: T1, human HDAC6 (Homo sapiens, UniProt Q9UBN7); experiment: IC50 of the test inhibitor against HDAC6 (10-dose enzymatic assay); type: biochemical; set-up: purchased BPS Bioscience 50006; conditions: for activity at 0.0003 µM: 0.0003 µM compound; for activity at 0.001 µM: 0.001 µM compound; for activity at 0.003 µM: 0.003 µM compound; for activity at 0.01 µM: 0.01 µM compound; for activity at 0.03 µM: 0.03 µM compound; for activity at 0.1 µM: 0.1 µM compound; for activity at 0.3 µM: 0.3 µM compound; for activity at 1 µM: 1 µM compound; for activity at 3 µM: 3 µM compound; for activity at 10 µM: 10 µM compound
T1 sequence (Q9UBN7 1-1215): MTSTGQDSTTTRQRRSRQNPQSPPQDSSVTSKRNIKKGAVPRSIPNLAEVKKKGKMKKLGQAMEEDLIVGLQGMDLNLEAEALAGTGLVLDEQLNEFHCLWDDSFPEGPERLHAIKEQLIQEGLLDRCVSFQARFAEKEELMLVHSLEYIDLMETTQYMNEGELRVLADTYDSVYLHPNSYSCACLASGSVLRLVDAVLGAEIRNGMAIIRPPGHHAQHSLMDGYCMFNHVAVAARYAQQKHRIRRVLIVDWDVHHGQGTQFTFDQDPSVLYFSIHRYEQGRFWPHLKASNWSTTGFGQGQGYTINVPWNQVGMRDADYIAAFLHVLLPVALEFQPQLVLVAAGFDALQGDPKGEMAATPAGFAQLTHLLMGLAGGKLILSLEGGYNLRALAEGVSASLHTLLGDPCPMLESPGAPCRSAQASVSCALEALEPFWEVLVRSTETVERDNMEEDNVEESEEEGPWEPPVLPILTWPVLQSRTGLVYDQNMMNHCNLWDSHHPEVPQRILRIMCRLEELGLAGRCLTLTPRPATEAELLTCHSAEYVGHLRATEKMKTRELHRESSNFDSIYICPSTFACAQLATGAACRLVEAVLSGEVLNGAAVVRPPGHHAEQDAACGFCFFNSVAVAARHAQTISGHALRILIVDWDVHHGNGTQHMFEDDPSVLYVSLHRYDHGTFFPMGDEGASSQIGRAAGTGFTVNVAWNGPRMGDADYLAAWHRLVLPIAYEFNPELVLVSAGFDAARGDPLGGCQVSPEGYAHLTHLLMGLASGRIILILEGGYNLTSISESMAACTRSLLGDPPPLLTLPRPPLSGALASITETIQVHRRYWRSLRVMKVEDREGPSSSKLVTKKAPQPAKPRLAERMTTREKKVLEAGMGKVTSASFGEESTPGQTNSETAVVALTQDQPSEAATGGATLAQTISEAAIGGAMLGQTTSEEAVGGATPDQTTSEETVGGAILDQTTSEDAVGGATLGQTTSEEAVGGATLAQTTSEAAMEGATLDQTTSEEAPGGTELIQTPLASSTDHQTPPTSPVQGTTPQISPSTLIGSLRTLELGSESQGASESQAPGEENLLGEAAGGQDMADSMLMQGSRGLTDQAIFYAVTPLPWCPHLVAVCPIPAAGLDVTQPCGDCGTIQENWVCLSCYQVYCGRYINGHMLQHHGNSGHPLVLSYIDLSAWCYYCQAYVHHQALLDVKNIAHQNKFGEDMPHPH

[3] = molecular target: T2, human HDAC10 (Homo sapiens, UniProt Q969S8); experiment: HDAC10 inhibitor enzymatic assay, % inhibition at fixed concentration; conditions: read-out: %inhibition of HDACs at 10µM of test compound HDAC10
T2 sequence (Q969S8 1-669): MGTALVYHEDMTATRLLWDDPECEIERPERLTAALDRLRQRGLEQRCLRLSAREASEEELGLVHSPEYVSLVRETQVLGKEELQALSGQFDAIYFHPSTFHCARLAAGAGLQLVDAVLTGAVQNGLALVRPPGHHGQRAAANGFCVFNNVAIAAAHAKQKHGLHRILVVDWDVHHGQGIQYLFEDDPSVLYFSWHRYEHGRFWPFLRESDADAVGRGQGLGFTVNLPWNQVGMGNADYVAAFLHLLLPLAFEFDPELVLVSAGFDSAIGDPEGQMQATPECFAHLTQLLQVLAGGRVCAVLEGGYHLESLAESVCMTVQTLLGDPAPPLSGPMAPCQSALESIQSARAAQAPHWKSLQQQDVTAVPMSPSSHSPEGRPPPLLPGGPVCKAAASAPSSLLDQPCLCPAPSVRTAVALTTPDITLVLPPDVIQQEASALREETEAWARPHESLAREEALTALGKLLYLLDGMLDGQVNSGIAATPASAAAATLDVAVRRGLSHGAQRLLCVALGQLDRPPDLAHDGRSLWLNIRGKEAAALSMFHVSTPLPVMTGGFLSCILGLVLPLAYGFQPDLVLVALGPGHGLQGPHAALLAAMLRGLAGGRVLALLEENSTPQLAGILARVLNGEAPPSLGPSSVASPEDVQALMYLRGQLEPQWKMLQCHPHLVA

[4] = Repeat1, read-out: HDAC6 % Activity Repeat1
[5] = Repeat2, read-out: HDAC6 % Activity Repeat2

In the case of `O=C(CCCSc1nc2ccccc2n1Cc1ccccc1)NO` [Compound 10a, 4-((1-benzyl-1H-benzo[d]imidazol-2-yl)thio)-N-hydroxybutanamide], the “effect on cell index of CCHE-45, pilot experiment” value ([1]; 100 µM (highest conc.), 72 hrs) is reported as “lowered cell index and induced cell death”, the “effect on cell index (CI) of CCHE-45” value ([1]; 100 µM, after 24 h from addition of the drug) is reported as “reduced CI to half the maximum CI” and the “effect on cell index (CI) of CCHE-45” value ([1]; 400 µM or 200 µM, monitoring for 96 h) is reported as “quick and dramatic reduction in cell index”. For the same molecule, the IC50 ([1]; 96 h) was 113 µM, the IC50 [1] was 113 ± 11.1 µM and the activity at 0.0003 µM [2, 4] was 100%. The activity at 0.0003 µM [2, 5] was 99%, the activity at 0.001 µM [2, 4] was 98% and the activity at 0.001 µM [2, 5] was 100%. The activity at 0.003 µM [2, 4] was 100%, the activity at 0.003 µM [2, 5] was 95% and the activity at 0.01 µM [2, 4] was 95%. It also gave an activity at 0.01 µM [2, 5] of 100%, an activity at 0.03 µM [2, 4] of 93% and an activity at 0.03 µM [2, 5] of 94%. For the same molecule, the activity at 0.1 µM [2, 4] was 86%, the activity at 0.1 µM [2, 5] was 82% and the activity at 0.3 µM [2, 4] was 61%. For the same molecule, the activity at 0.3 µM [2, 5] was 63%, the activity at 1 µM [2, 4] was 33% and the activity at 1 µM [2, 5] was 33%. The activity at 3 µM [2, 4] was 13%, the activity at 3 µM [2, 5] was 14% and the activity at 10 µM [2, 4] was 5%. It also gave an activity at 10 µM [2, 5] of 5% and an inhibition at 10 µM [3] of 28%.
